{"source": "paper PMC7385619", "about": "“A triple action CDK4/6-PI3K-BET inhibitor with augmented cancer cell cytotoxicity” (Cell Discovery, 2020)", "key": {"CDK2": {"target": "T1, CDK2 (Homo sapiens, UniProt P24941)", "T1 construct": "purchased Reaction Biology", "assay": "In vitro kinase assay, CDK2", "format": "biochemical", "conditions": "Fig. 1b; italicized values from the literature (italics not visible)"}, "[1]": {"assay": "Cell viability (cytotoxicity) assay, normal tonsillar epithelial cells", "format": "cell-based", "conditions": "human, normal tonsillar epithelial cells (RRP008), surrogate for toxicity of normal tissue, read-out: Half maximal inhibitory concentration (IC50) in cell line cytotoxicity assays, Tonsillar Epithelia"}, "PI3Kγ": {"target": "T2, PI3Kγ (Homo sapiens, UniProt P48736)", "T2 construct": "purchased ThermoFisher Scientific", "T2 sequence (P48736 whole entry)": "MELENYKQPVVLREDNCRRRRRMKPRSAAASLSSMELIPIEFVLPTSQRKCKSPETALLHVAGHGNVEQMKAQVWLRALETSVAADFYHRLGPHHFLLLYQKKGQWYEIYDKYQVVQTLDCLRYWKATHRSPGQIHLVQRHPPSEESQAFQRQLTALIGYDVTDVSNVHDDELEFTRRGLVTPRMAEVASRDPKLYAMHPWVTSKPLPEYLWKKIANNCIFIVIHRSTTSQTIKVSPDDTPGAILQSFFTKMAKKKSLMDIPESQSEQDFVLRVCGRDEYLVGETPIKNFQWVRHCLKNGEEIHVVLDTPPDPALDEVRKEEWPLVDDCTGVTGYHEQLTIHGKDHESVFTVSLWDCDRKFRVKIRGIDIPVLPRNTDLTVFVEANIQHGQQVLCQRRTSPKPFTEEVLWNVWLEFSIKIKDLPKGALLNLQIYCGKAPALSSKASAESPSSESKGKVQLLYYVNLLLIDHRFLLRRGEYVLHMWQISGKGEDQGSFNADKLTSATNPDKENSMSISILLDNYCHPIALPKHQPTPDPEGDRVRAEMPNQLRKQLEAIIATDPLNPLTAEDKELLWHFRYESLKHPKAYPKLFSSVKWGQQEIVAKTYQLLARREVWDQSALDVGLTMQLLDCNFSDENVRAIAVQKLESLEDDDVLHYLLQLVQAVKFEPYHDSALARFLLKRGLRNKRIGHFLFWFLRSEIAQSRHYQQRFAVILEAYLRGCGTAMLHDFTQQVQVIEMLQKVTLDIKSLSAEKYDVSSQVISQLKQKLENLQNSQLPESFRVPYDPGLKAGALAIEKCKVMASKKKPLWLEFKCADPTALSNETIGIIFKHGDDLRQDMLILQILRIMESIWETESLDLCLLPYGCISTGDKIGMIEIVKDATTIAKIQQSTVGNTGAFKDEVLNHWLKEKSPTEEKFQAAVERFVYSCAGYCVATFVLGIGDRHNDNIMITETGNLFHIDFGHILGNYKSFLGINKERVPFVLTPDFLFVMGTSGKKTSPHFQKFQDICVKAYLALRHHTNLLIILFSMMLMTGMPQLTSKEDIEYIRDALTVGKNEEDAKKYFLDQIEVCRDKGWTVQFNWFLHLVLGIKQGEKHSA", "assay": "In vitro kinase assay, PI3Kγ", "format": "biochemical", "conditions": "Fig. 1b; italicized values from the literature (italics not visible)"}, "DNA-PK": {"target": "DNA-PK (Homo sapiens, UniProt P78527)", "assay": "In vitro kinase assay, DNA-PK", "format": "biochemical", "conditions": "Fig. 1b; italicized values from the literature (italics not visible)"}, "[2]": {"tested_on": "pAKT Ser473 (downstream surrogate of PI3K activity)", "assay": "Immunoblotting for Akt phosphorylation", "format": "cell-based, human", "conditions": "Huh7, CHLA-255 and Jeko-1 cells, stimulated with 50 ng/mL IGF-1, increasing concentrations, 30 minutes", "excerpt": "(§1) from James Bradner (Dana-Farber Cancer Institute, Boston, MA). […]\n(§2) from Novartis (Basel, Switzerland). Palbociclib was obtained from LC Laboratories (Woburn, MA). Recombinant human IGF-1 was from Peprotech (Rocky Hill, NJ). Antibodies specific for […]\n(§3) Cell Signaling Technology (Beverly, MA). GAPDH antibody (GT239) was from GeneTex, Inc.\n(§4) Molecular models were created to design and dock molecules in silico using the software engines AutoDock Vina1 and rDock2 and the crystal structures of BRD4 (PDB ID: 4CFK), PI3K (PDB ID: 4JPS) and CDK6 (PDB ID: 5L2T).\n(§5) Bromodomain and kinase assays\n(§6) Inhibition of BET family members was measured using Alpha Screen assays from Reaction Biology (Malvern, PA) with His -tagged bromodomains and acetylated histone peptides as ligands. CDK and PI3K isoform activities were measured using in vitro kinase assays from Reaction Biology and ThermoFisher Scientific (Waltham, MA), respectively. KINOME scan and BROMOscan assays were performed at Eurofins DiscoverX (Fremont, CA) with data analyzed […]\n(§7) Protein expression and purification\n(§8) BRD4 BD1 (aa 43-180) and BD2 (aa 342 -460) were expressed in E. coli BL21 (DE3) RIL in either Luria Broth or […] minimal media supplemented with 15NH4Cl. […]\n(§9) or 100 µM in triplicate the following day. […] For CCK8, absorbance was measured at 450 nm; for Alamar Blue, fluorescence signals were read as emission at 590 nm after excitation at 560 nm. […]"}, "[3]": {"tested_on": "BRD4 binding to the MYC TSS in Huh7 and Jeko-1 cells", "assay": "Chromatin immunoprecipitation of BRD4 at the MYC transcriptional start site", "format": "cell-based, human", "procedure": "assay for comparison relative to the no-drug control and to the time zero number of cells for assessment of growth inhibition (values between 0 and 100) and lethality (values less than 0), […]\nHepatocellular carcinoma cells (Hep3B, HepG2, and Huh7), neuroblastoma cells (CHLA-255, CHLA-136, and SMS-KNCR), mantle cell lymphoma (Granta-519, Mino, and Jeko-1), or normal tonsillar epithelial cells (RRP008) were seeded in complete medium in 96-well tissue culture plates at 2.5 x 10^3 to 1 x 10^4 cells per well, respectively. Cells were incubated overnight to allow for attachment of adherent cells. […]\nor 100 µM in triplicate the following day. Cells were incubated for 48 hours at 37 °C then treated with either CCK8 reagent (Dojindo Molecular Technologies, Rockville, MD) or Alamar Blue (ThermoFisher Scientific) and incubated for 3-6 hours at 37 °C. For CCK8, absorbance was measured at 450 nm; for Alamar Blue, fluorescence signals were read as emission at 590 nm after excitation at 560 nm. Averaged values were normalized as a percentage of control and plotted and regressed for dose response using GraphPad Prism (GraphPad Software, Inc., La […]\nChromatin immunoprecipitation\nChromatin immunoprecipitation assays using antibodies against BRD4 and an isotype control and primers designed to the MYC transcriptional site and a non-regulated upstream locus were performed as previously described8. […]"}, "BRD3 (BD2)": {"target": "T3, BRD3 (BD2) (Homo sapiens, UniProt Q15059)", "T3 construct": "tagged bromodomains and acetylated histone peptides as; purchased Reaction Biology", "T3 sequence (Q15059 306-415 limits assumed)": "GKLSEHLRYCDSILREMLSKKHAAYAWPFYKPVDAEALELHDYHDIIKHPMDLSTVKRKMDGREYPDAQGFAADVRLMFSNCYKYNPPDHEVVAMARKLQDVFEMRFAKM", "assay": "AlphaScreen bromodomain binding assay, BRD3 BD2", "conditions": "Fig. 1b; italicized values from the literature (italics not visible)"}, "CDK6": {"target": "T4, CDK6 (Homo sapiens, UniProt Q00534)", "T4 construct": "purchased Reaction Biology", "T4 sequence (Q00534 whole entry)": "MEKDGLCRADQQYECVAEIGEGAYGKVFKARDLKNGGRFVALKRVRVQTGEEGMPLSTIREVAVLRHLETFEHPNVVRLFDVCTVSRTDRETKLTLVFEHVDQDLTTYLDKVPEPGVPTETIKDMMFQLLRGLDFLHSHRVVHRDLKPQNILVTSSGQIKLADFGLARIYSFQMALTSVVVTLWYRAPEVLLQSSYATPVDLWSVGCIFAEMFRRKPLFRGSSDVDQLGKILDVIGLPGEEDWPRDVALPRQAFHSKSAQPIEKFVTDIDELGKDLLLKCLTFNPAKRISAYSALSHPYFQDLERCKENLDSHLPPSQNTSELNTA", "T4 sequence (P24385 whole entry partner)": "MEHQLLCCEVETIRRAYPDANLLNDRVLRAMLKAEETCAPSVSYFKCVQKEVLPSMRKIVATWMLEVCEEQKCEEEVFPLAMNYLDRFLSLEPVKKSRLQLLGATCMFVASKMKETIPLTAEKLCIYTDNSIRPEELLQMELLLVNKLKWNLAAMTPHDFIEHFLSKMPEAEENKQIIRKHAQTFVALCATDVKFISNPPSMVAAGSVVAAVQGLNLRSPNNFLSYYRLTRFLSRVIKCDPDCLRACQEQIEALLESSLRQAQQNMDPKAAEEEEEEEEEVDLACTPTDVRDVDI", "assay": "In vitro kinase assay, CDK6", "format": "biochemical", "conditions": "Fig. 1b; italicized values from the literature (italics not visible)"}, "[4]": {"tested_on": "mantle cell lymphoma (Granta-519, Mino, and Jeko-1)", "assay": "Cell viability (cytotoxicity) assay, mantle cell lymphoma cells", "format": "cell-based", "conditions": "Homo sapiens; 48 hours, CCK8 or Alamar Blue; curves of Fig. 1f-j; read-out: Half maximal inhibitory concentration (IC50) in cell line cytotoxicity assays, Mantle Cell Lymphoma"}, "BRD3 (BD1)": {"target": "T5, BRD3 (BD1) (Homo sapiens, UniProt Q15059)", "T5 construct": "tagged bromodomains and acetylated histone peptides as; purchased Reaction Biology", "T5 sequence (Q15059 34-140 limits assumed)": "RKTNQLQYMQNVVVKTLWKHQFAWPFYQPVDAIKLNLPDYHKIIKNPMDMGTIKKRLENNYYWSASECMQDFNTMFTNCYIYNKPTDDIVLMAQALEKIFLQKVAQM", "assay": "AlphaScreen bromodomain binding assay, BRD3 BD1", "conditions": "Fig. 1b; italicized values from the literature (italics not visible)"}, "CDK9": {"target": "T6, CDK9 (Homo sapiens, UniProt P50750)", "T6 construct": "purchased Reaction Biology", "T6 sequence (P50750 whole entry)": "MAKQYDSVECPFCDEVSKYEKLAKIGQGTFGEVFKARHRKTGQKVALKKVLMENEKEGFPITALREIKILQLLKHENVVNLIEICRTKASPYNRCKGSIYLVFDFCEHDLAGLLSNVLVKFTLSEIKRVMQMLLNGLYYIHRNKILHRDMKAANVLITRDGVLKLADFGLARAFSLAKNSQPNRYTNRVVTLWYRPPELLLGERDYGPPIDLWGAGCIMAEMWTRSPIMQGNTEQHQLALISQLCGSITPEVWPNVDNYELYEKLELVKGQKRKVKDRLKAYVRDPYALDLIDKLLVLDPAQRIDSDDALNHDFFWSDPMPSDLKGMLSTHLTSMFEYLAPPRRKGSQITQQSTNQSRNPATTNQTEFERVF", "T6 sequence (O60563 whole entry partner)": "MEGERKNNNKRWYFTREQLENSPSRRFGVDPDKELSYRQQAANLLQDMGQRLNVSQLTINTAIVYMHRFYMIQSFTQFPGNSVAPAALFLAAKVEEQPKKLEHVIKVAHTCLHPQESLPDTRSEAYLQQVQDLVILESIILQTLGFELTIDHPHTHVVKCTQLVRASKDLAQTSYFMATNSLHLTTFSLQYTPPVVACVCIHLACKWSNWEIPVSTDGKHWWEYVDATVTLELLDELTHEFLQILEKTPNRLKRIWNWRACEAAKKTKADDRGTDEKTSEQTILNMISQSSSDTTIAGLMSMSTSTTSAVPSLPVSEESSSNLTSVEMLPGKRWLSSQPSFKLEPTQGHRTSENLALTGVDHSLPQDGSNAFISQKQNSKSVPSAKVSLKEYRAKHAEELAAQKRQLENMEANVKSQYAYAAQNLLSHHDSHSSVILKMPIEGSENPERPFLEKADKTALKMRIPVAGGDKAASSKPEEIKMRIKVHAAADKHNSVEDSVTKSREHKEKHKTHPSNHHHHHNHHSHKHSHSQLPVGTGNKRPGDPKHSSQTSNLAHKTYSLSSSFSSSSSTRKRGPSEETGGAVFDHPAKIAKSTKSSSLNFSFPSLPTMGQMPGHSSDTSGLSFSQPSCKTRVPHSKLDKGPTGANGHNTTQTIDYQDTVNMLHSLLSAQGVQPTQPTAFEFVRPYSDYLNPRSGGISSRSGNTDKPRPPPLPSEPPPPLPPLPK", "assay": "In vitro kinase assay, CDK9", "format": "biochemical", "conditions": "Fig. 1b; italicized values from the literature (italics not visible)"}, "[5]": {"tested_on": "NCI-60 Panel of Human Tumor Cell Line", "format": "cell-based", "conditions": "10 µM, one-dose assay"}, "PI3Kδ": {"target": "T7, PI3Kδ (Homo sapiens, UniProt O00329)", "T7 construct": "purchased ThermoFisher Scientific", "T7 sequence (O00329 whole entry)": "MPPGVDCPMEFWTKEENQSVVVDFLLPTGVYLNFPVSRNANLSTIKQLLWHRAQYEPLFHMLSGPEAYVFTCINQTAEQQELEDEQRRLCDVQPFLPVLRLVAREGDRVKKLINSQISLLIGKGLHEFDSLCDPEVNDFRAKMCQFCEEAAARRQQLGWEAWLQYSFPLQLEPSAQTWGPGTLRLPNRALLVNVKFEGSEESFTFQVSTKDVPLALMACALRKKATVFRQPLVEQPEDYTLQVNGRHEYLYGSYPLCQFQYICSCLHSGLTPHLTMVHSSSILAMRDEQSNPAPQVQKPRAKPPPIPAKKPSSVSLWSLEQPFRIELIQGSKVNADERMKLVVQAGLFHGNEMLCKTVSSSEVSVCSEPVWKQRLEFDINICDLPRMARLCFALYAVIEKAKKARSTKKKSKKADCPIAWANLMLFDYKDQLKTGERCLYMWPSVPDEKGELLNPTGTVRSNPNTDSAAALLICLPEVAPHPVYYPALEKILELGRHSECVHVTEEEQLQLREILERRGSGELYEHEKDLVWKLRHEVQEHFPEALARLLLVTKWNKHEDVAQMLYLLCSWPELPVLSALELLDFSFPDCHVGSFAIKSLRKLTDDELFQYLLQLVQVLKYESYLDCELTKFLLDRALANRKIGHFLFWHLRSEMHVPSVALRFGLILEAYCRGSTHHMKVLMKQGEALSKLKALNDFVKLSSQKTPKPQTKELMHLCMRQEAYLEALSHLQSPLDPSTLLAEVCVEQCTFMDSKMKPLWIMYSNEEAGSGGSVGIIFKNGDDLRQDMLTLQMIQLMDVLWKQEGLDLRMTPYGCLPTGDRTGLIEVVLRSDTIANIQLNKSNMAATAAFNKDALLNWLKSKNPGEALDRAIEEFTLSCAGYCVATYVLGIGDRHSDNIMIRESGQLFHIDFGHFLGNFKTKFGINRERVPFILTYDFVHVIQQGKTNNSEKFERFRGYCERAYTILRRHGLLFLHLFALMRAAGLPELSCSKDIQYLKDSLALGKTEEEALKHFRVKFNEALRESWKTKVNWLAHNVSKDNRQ", "T7 sequence (P27986 whole entry partner)": "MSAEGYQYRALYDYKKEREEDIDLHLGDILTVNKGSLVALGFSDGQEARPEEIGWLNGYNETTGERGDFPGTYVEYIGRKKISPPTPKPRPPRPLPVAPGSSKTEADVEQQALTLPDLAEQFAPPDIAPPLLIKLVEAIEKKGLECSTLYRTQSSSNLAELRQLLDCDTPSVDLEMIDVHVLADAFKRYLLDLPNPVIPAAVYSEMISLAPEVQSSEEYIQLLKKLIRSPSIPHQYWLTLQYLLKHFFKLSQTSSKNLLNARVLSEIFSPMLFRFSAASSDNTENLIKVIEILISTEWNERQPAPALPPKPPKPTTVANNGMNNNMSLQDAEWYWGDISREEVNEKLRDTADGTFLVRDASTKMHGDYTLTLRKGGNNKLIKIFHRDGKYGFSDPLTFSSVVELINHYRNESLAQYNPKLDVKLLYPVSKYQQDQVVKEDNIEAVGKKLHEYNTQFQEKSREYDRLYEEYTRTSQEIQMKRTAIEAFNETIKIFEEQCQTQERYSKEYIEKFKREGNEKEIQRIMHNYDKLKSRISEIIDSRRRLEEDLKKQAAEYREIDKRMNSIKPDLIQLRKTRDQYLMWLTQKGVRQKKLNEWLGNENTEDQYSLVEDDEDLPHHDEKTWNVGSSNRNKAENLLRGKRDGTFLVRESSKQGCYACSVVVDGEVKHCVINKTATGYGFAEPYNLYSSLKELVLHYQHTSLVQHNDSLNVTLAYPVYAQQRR", "assay": "In vitro kinase assay, PI3Kδ", "format": "biochemical", "conditions": "Fig. 1b; italicized values from the literature (italics not visible)"}, "bromodomain panel": {"tested_on": "bromodomain panel", "assay": "BROMOscan assay (Eurofins DiscoverX)", "format": "binding"}, "[6]": {"tested_on": "pRb Ser780 (downstream surrogate of CDK4/6 activity)", "assay": "Immunoblotting for Rb phosphorylation", "format": "cell-based, human", "conditions": "Huh7, CHLA-255 and Jeko-1 cells, stimulated with 50 ng/mL IGF-1, increasing concentrations, 30 minutes", "excerpt": "as §1, §2, §3, §4, §5, §6, §7, §8, §9"}, "BRD2 (BD1)": {"target": "T8, BRD2 (BD1) (Homo sapiens, UniProt P25440)", "T8 construct": "tagged bromodomains and acetylated histone peptides as; purchased Reaction Biology", "T8 sequence (P25440 74-180 limits assumed)": "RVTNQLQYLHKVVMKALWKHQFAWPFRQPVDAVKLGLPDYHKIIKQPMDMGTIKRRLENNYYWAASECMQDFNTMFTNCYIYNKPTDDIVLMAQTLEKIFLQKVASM", "assay": "AlphaScreen bromodomain binding assay, BRD2 BD1", "conditions": "Fig. 1b; italicized values from the literature (italics not visible)"}, "mTOR": {"target": "mTOR (Homo sapiens, UniProt P42345)", "assay": "In vitro kinase assay, mTOR", "format": "biochemical", "conditions": "Fig. 1b; italicized values from the literature (italics not visible)"}}}
{"smiles": "CN(C)C(=O)c1cc2cnc(Nc3ccc(-c4csc5c(=O)cc(N6CCOCC6)oc45)cc3)nc2n1C1CCCC1", "note": "[SRX3177]", "values": [{"measurement": "IC50", "setting": "CDK2", "result": 500, "unit": "nM"}, {"measurement": "IC50 at 48 h", "setting": "[1]", "result": 34000, "unit": "nM"}, {"measurement": "IC50", "setting": "PI3Kγ", "result": 3180, "unit": "nM"}, {"measurement": "IC50", "setting": "DNA-PK", "result": 21, "unit": "nM"}, {"measurement": "levels of Akt phosphorylation", "setting": "[2]", "result": "decrease in levels"}, {"measurement": "occupancy of BRD4 at the transcriptional start site (TSS) of MYC by ChIP", "setting": "[3]", "result": "abrogated binding of BRD4 to the MYC TSS"}, {"measurement": "IC50", "setting": "BRD3 (BD2)", "result": 226, "unit": "nM"}, {"measurement": "IC50", "setting": "CDK6", "result": 3.3, "unit": "nM"}, {"measurement": "IC50", "setting": "[4]", "result": 830, "unit": "nM"}, {"measurement": "IC50", "setting": "BRD3 (BD1)", "result": 106, "unit": "nM"}, {"measurement": "IC50", "setting": "CDK9", "result": "< 2", "unit": "nM"}, {"measurement": "cytotoxic effect in the NCI-60 panel", "setting": "[5]", "result": "cytotoxic effects on the majority of the cell lines tested"}, {"measurement": "tumor cytotoxicity compared to SF2523 or SRX3177P", "setting": "[5]; NCI-60 panel", "result": "greater tumor cytotoxicity"}, {"measurement": "IC50", "setting": "PI3Kδ", "result": 83, "unit": "nM"}, {"measurement": "specificity in BROMOscan", "setting": "bromodomain panel", "result": "lack of off-targeting"}, {"measurement": "levels of Rb phosphorylation", "setting": "[6]", "result": "decrease in levels of Rb phosphorylation"}, {"measurement": "IC50", "setting": "BRD2 (BD1)", "result": 1410, "unit": "nM"}, {"measurement": "IC50", "setting": "mTOR", "result": 6910, "unit": "nM"}]}
